Source: patent US12391697B2, “Condensed bi-heterocycles as inhibiting agents for Bruton's tyrosine kinase” (BIOGEN MA INC., priority 2019, dated 2025)
Structures can show the parent of a compound that is named as a salt. Where two headings read alike, the source gives them in different places.

Tests used:
[1] = target: BTK (Homo sapiens (Human), UniProt Q06187); test: In Vitro BTK Kinase Assay: Btk-PolyGAT-LS Assay; type: biochemical; conditions: active BTK enzyme 0.25 nM, ATP 10 μM, polyGAT 100 nM, 30 minutes
Sequence of BTK (Q06187 whole entry): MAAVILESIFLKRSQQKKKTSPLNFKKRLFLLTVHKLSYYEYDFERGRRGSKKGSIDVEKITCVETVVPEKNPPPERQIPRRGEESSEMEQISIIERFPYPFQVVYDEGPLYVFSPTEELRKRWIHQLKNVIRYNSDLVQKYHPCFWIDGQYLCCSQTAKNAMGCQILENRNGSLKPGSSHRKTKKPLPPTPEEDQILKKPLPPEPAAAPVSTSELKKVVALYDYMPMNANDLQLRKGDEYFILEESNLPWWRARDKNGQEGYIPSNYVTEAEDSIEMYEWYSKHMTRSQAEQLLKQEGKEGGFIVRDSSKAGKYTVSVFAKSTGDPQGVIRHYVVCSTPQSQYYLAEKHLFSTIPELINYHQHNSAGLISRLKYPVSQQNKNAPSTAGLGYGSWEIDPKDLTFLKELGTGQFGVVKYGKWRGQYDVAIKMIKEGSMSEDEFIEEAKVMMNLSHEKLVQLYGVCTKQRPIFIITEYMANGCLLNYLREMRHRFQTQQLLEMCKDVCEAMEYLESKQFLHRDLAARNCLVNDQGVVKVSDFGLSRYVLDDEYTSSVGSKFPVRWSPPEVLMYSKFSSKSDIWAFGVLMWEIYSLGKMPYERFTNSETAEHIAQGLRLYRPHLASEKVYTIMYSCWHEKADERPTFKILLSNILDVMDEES
In short: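 Recombinant BTK (0.25 nM) phosphorylating 100 nM polyGAT at 10 μM ATP in Tris-HCl pH 7.5 buffer with MgCl2, DTT, Triton X-100 and casein, 30 min, then EDTA stop.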

[2] = test system: CD69 expression on CD19+ B cells in whole blood; test: In Vitro Whole Blood CD69 Assay; type: cell-based, Human; conditions: human heparinized whole blood, anti-human IgD stimulation, percentage of CD19+ B cells expressing CD69, read-out: IC50
Protocol: In Vitro Whole Blood CD69 Assay
Human heparinized venous blood from health donors was aliquoted into 96-well plate and “spiked” with serial dilutions of formula I compounds in DMSO or with DMSO without drug. The final concentration of DMSO in all wells was 0.1%. The plate was incubated at 37° C. for 30 min. Drug-containing samples were stimulated with 0.1 μg/mL mouse anti-human IgD-dextran (1A62) or 20 μg/mL polyclonal rabbit F(ab′)2 anti-human IgD. Phosphate-buffered saline (PBS) was added to the negative control unstimulated sample and the plates were incubated overnight (18 to 22 hours) at 37° C. Cells were stained with fluorochrome-conjugated anti-CD19 and anti-CD69 antibodies. Lyse/fix solution was used to remove red blood cells by hypotonic lysis and to fix the remaining cells, which were then analyzed by flow cytometry. CD19+ B cells were gated and analyzed for CD69 expression. The percentage of B cells expressing CD69 was plotted versus the log 10 of the concentration of the drug and the best-fit curves (variable Hill slope) were generated to obtain the IC50 value.

Row | Compound | IC50 [1] | IC50 ([2]; Homo sapiens, B-cell) | IC50 [2]
1 | Cc1c(CNC(=O)c2nc(C(C)(C)C)no2)ccc(-c2ncnn3cc(N4CCN(C)[C@@H](C)C4)cc23)c1F (single isomer, unassigned) [Example 26] | ≤ 0.001 µM | 0.1 to 1 µM | 
2 | Cc1cc(-c2ncnn3cc(N4C[C@H](C)O[C@@H](C)C4)cc23)ccc1CNC(=O)c1noc(C(C)(C)C)n1 (single isomer, unassigned) [Example 44, hydrochloride] | ≤ 0.001 µM | 0.1 to 1 µM | 
3 | Cc1cc(-c2ncnn3cc(N4CCOCC4)cc23)ccc1CNC(=O)c1noc(C(C)(C)C)n1 [Example 5, 5-(tert-butyl)-N-(2-methyl-4-(6-morpholinopyrrolo[2,1-f][1,2,4]triazin-4-yl)benzyl)-1,2,4-oxadiazole-3-carboxamide trifluoroacetate] | ≤ 0.001 µM | 0.1 to 1 µM | 
4 | CC(C)(C)c1nc(C(=O)NCc2cc(F)c(-c3ncnn4cc(N5CCOCC5)cc34)cc2Cl)no1 [Example 1, 5-tert-butyl-N-[[2-chloro-5-fluoro-4-(6-morpholinopyrrolo[2,1-f][1,2,4]triazin-4-yl)phenyl]methyl]-1,2,4-oxadiazole-3-carboxamide] | ≤ 0.001 µM | > 1 µM | 
5 | CC(C)(C)c1nc(C(=O)N[C@@H]2CCCCc3c2ccc(-c2ncnn4cccc24)c3F)no1 [Example 56, (R)-5-(tert-butyl)-N-(1-fluoro-2-(pyrrolo[2,1-f][1,2,4]triazin-4-yl)-6,7,8,9-tetrahydro-5H-benzo[7]annulen-5-yl)-1,2,4-oxadiazole-3-carboxamide hydrochloride] | ≤ 0.001 µM | 0.1 to 1 µM | 
6 | CC(C)(C)c1nc(C(=O)NCc2ccc(-c3ncnn4cc(N5CCOCC5)cc34)cc2Cl)no1 [Example 15, 5-(tert-butyl)-N-(2-chloro-4-(6-morpholinopyrrolo[2,1-f][1,2,4]triazin-4-yl)benzyl)-1,2,4-oxadiazole-3-carboxamide trifluoroacetate] | ≤ 0.001 µM | 0.1 to 1 µM | 
7 | Cc1c(CNC(=O)c2nc(C(C)(C)C)no2)ccc(-c2ncnn3cc(N4CCOCC4)cc23)c1F [Example 2, 3-(tert-butyl)-N-(3-fluoro-2-methyl-4-(6-morpholinopyrrolo[2,1-f][1,2,4]triazin-4-yl)benzyl)-1,2,4-oxadiazole-5-carboxamide] | ≤ 0.001 µM | 0.1 to 1 µM | 
8 | Cc1cc(-c2ncnn3cc(C4=CCOCC4)cc23)ccc1CNC(=O)c1noc(C(C)(C)C)n1 [Example 6, 5-(tert-butyl)-N-(4-(6-(3,6-dihydro-2H-pyran-4-yl)pyrrolo[2,1-f][1,2,4]triazin-4-yl)-2-methylbenzyl)-1,2,4-oxadiazole-3-carboxamide] | ≤ 0.001 µM | 0.1 to 1 µM | < 0.1 µM
